# Measurements: PMC10700673, “A Smart Intracellular Self‐Assembling Bioorthogonal Raman Active Nanoprobe for Targeted Tumor Imaging” (Advanced Science, 2023)
# Tested on: DU145 tumors
# Test: ex vivo Raman imaging of excised tumor sections with MCR analysis
# Assay type: in vivo, NU/J nude mice
# Description: Ex vivo Raman imaging was conducted on the tumor excised from the tumor‐bearing mice at 2 h post‐administration of nanoSABER (Figure 6b–d). To distinguish the probe signal from endogenous autofluorescence and Raman‐active molecules in the tissue matrix, multivariate curve resolution (MCR) analysis was performed on the spectral dataset recorded from the Raman‐mapped tumor sections. MCR is designed to tackle such problems by expressing the original data through a bilinear model of pure component meaningful contributions.^[ [43] ^] Tissue sections were divided into five groups: DU145 control, DU145‐nanoSABER, DU145‐Scr, LNCaP control, and LNCaP‐nanoSABER, with the control group representing mice injected with 100 µL of PBS vehicle. Collected Raman spectra were divided into the above‐mentioned classes. The tumor dataset was also supplemented with spectra from the quartz coverslip and a separate class was created to preclude the impact of background spectral features in the ensuing analysis. […] Since we are particularly interested in the wavenumber features in the cell‐silent region (i.e., the nanoSABER‐specific bands in the otherwise biologically silent spectral region), MCR2 serves as the principal differentiator.
# To create a readily interpretable two‐dimensional (2D) visualization plot, we plotted MCR2 scores against that of MCR3, which contains primarily tissue‐characteristic and background features (Figure 6c). […] The highest MCR2 and MCR3 scores for the quartz‐only spectra were used as the lower and upper thresholds, respectively, to depict significant contributions from the individual components. […] This is indicative of a 100% specificity of the nanoSABER probe, without secondary non‐specific spectra from any of the other tumor treatment classes in the ROI. Moreover, 15% of all spectra obtained from mice with DU145 tumors treated with the nanoSABER probe were situated within the ROI, which confirms the high penetration efficiency of the nanoprobes. […]
substance,measurement,setting,value
Ac‐Arg‐Arg‐Arg‐Arg‐Arg‐Arg‐Ala‐Ala‐Asn‐Cys(StBu)‐Pra‐Lys‐CBT [nanoSABER],average ratio of alkyne to nitrile Raman peak intensity of spectra within the ROI,DU145 tumors excised 2 h after IV 0.0125 mmol kg-1,1.5
same,share of all spectra situated within the ROI,"DU145 tumors excised 2 h after IV 0.0125 mmol kg-1, 12 µm cryosections",15%
same,specificity (spectra in the ROI of MCR2 versus MCR3 score plot),"tumors excised 2 h after IV 0.0125 mmol kg-1, 12 µm cryosections",100%
